The numbers were not newly measured in US20210251946A1, “CANNABINOID-[…], FORMULATIONS, AND USES THEREOF FOR TREATING AMYOTROPHIC LATERAL SCLEROSIS” (GREEN RUSH SCIENCE, LLC, priority 2020, published 2021), which cites them from elsewhere.

Molecules are shown by their SMILES.

For data set [1], the system named is ALS hSOD(G93A) mice. The note with it: daily intraperitoneal administration, initiated after disease onset.
Data set [2] deals with ALS hSOD(G93A) mice. As to conditions: intraperitoneally, beginning after onset of motor impairment and tremor (at 90 days old).

Take `CN1CCCCC1Cn1cc(C(=O)c2cc([N+](=O)[O-])ccc2I)c2ccccc21` (stereo not drawn) [AM-1241]: in data set [1], the increase of survival is 56% and the motor impairment entry is “delayed motor impairment”.
Consider `Cc1c(C(=O)c2cccc3ccccc23)c2cccc3c2n1[C@H](CN1CCOCC1)CO3` [WIN 55,212-2], for which, in data set [2], the disease progression result was “significant delay in disease progression”.
